Reference: patent US20230028441A1, “NOVEL HETEROARYL-TRIAZOLE COMPOUNDS AS PESTICIDES” (Bayer Aktiengesellschaft, priority 2019, published 2023)

Experiments:
Format in all cases: in vivo
[1] = test system: brown planthopper (Nilaparvata lugens); test: Nilaparvata lugens spray test; details: in Oryza sativa, 96 h
How it was run: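 Rice plants (Oryza sativa) sprayed with compound in acetone/DMF diluted in water containing 1000 ppm alkylarylpolyglycol ether emulsifier, then infested with planthoppers. Mortality % scored after 4 days (100% = all killed, 0% = none killed).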

[2] = test system: adult brown dog ticks (Rhipicephalus sanguineus); test: Rhipicephalus sanguineus in-vitro contact test with adult brown dog ticks; details: after 48 hours, read-out: efficacy (ticks dead or moribund)
How it was run: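 Compound in acetone coated onto glass tube inner walls at 900 ppm, giving 5 μg/cm^2. Adult ticks (5-10 per tube) held at room temperature for 48 h, then placed on a 45-50° C. heating plate for up to 5 min. Ticks unable to climb away counted dead or moribund; efficacy given as % dead/moribund.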

[3] = test system: Blattella germanica strain PAULINIA; test: Blattella germanica test (BLTTGE surface treatment & contact assay); details: 24 hours after contact, read-out: efficacy (mortality)
Protocol: (§1) Solvent: Aceton+2000 ppm rapeseed oil methyl ester (RME)
(§2) In order to produce a sufficient, active ingredient containing solution it is necessary to solve the test compound in the solvent-mix (acetone at 2 mg/ml/RME 2000 ppm). This solution is pipetted onto a glazed tile and after evaporation of the acetone, adult animals of the species Blattella germanica strain PAULINIA are placed onto the dried surface. The exposure time is 30 minutes.
(§3) Mortality in percent (%) is determined 24 hours after contact of the insects to the treated surface. 100% mortality means that all tested insects are dead, whereas 0% means that no insect died.

[4] = test system: adult cat fleas (Ctenocephalides felis); test: Ctenocephalides felis in-vitro contact test, adult cat flea; details: 5 μg/cm^2 (=500 g/ha), after 48 hours, read-out: efficacy (fleas dead or moribund)
How it was run: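 Acetone solutions were coated on glass tube walls, 900 ppm giving 5 μg/cm^2. After drying, 5-10 adult fleas per tube were held 48 h at room temperature. Fleas unable to climb away from a 45-50 °C heating plate within 5 min were scored dead or moribund, as % efficacy.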

[5] = test system: cattle tick larvae (Rhipicephalus microplus), strain Parkhurst, resistant against synthetic pyrethroids; test: Rhipicephalus (Boophilus) microplus in-vitro contact test, larval cattle tick; details: 5 μg/cm^2 (=500 g/ha), after 48 hours, read-out: efficacy (larvae dead or moribund)
How it was run: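 Acetone solutions of compound were coated on glass tube walls (900 ppm giving 5 μg/cm^2) and dried. 20–50 pyrethroid-resistant Parkhurst larvae were held per tube at 27° C and 85% relative humidity; after 48 h negative geotaxis scored efficacy as percent larvae dead or moribund.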

[6] = test system: Aedes aegypti strain MONHEIM; test: Aedes aegypti test (AEDSAE surface treatment & contact assay); details: 24 hours after contact, read-out: efficacy (mortality)
Protocol: as §1
as §2, with “mosquitoes” for “animals”, “Aedes aegypti” for “Blattella germanica”, “MONHEIM” for “PAULINIA”, “minutes. Mortality in percent (%) is determined 24 hours after contact of the insects to the treated surface. 100% mortality means that all tested insects are dead, whereas 0% means that no insect died.” for “minutes.”

[7] = test system: fall armyworm larvae (Spodoptera frugiperda); test: Spodoptera frugiperda spray test (maize leaf sections); details: 168 h
How it was run: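 Maize leaf sections were sprayed with compound formulated in acetone/DMF and diluted in water containing 1000 ppm emulsifier. Once dry, sections were infested with fall armyworm larvae. Mortality (%) was scored after 7 days.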

[8] = test system: Musca domestica strain WHO-N; test: Musca domestica test (MUSCDO surface treatment & contact assay); details: 24 hours after contact, read-out: efficacy (mortality)
Protocol: as §1
as §2, with “flies” for “animals”, “Musca domestica” for “Blattella germanica”, “WHO-N” for “PAULINIA”, “minutes. Mortality in percent (%) is determined 24 hours after contact of the insects to the treated surface. 100% mortality means that all tested insects are dead, whereas 0% means that no insect died.” for “minutes.”

[9] = test system: Anopheles funestus strain FUMOZ-R; test: Anopheles funestus test (ANPHFU surface treatment & contact assay); details: surface concentration 20 mg/m^2, 30 minutes exposure, 24 hours after contact, read-out: efficacy (mortality)
Protocol: as §1
as §2, with “mosquitoes” for “animals”, “Anopheles funestus” for “Blattella germanica”, “FUMOZ-R (Hunt et al., Med. Vet. Entomol. 2005 September; 19(3): 271-275)” for “PAULINIA”
as §3

[10] = test system: green peach aphid (Myzus persicae); test: Myzus persicae spray test; details: foliar, 120 h, 100 g/ha, after 5 days, Chinese cabbage leaf disks
How it was run: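 Chinese cabbage leaf disks carrying all instars of Myzus persicae were sprayed with compound. The formulation was acetone/dimethylformamide diluted in water with 1000 ppm alkylarylpolyglycol ether emulsifier. Percent mortality was scored after 5 days, with 100% meaning all aphids killed.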

[11] = test system: larvae of the banded cucumber beetle (Diabrotica balteata); test: Diabrotica balteata spray test; details: 168 h, 100 g/ha (=32 μg/well), after 7 days, wheat seeds, read-out: efficacy (seedlings grown up)
How it was run: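 Germinated wheat seedlings (5 per well, agar plates) sprayed with compound in acetone/DMF diluted in water with 1000 ppm emulsifier, then infested with 10-20 larvae per unit. Efficacy scored after 7 days as % seedling growth relative to untreated, uninfested control (100% = normal growth, 0% = none).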

[12] = surface concentration 4 mg/m^2, 30 minutes exposure
[13] = surface concentration 20 mg/m^2, 30 minutes exposure

C[C@H](NC(=O)c1cc(OC(F)(F)F)cc(C2CC2)c1)c1nc(N(C)C)nn1-c1ncccn1 [I-138]
mortality at 500 g/ha [1]: 100% | pest or weed control at 1 µg/cm2, 100 g/ha ([2]; 1 μg/cm^2 (=100 g/ha)): 100% | pest or weed control at 5 µg/cm2, 500 g/ha ([2]; 5 μg/cm^2 (=500 g/ha)): 100% | mortality at 4 mg/m2 [3, 12]: 90 to 100% | mortality at 20 mg/m2 [3, 13]: 90 to 100% | pest or weed control at 5 µg/cm2 [4]: 100% | pest or weed control at 5 µg/cm2 [5]: 100% | mortality at 4 mg/m2 [6, 12]: 90 to 100% | mortality at 20 mg/m2 [6, 13]: 90 to 100% | mortality at 100 g/ha [7]: 100% | mortality at 4 mg/m2 [8, 12]: 90 to 100% | mortality at 20 mg/m2 [8, 13]: 90 to 100% | mortality at 20 mg/m2 [9]: 90 to 100% | mortality at 100 g/ha [10]: 90% | pest or weed control at 32 µg/disc, 100 g/ha [11]: 100%
